The test system of one assay is B. fragilis AMP S. Description: MIC by agar-dilution (Diagnostic Sensitivity Test), inoculum 10^4 CFU/spot. In kind it is cell-based. The settings on record: Bacteroides fragilis, read-out: minimum inhibitory concentration (MIC). The source says: (§1) The pharmaceutically acceptable carbapenem compounds of the present invention are useful antibacterial agents having a broad spectrum of activity in vitro against standard laboratory microorganisms, both Gram-negative and Gram-positive, which are used to screen for activity against pathogenic bacteria. The antibacterial spectrum and potency of a particular compound may be determined in a standard test system. In particular the carbapenems of the present invention show good stability to beta-lactamases and have a particularly good elimination half life in mammals. In general compounds show significant improvement over imipenem.
(§2) The following results were obtained for representative compounds on a standard in vitro test system using Diagnostic Sensitivity Test. The antibacterial activity is described in terms of the minimum inhibitory concentration (MIC) determined by the agar-dilution technique with an inoculum size of 10^4 CFU/spot.

The next assay relates to S. aureus Oxford. The description is as above. The class given is cell-based. The note with it: Staphylococcus aureus, read-out: minimum inhibitory concentration (MIC).
Source text: as §1, §2

The next assay relates to P. morganii I + 001. Described as above. In kind it is cell-based. The settings on record: Morganella morganii, read-out: minimum inhibitory concentration (MIC).
Source text: as §1, §2

The subject of the next assay is E. coli DCO. The description is as above. The class given is cell-based. The note with it: Escherichia coli, read-out: minimum inhibitory concentration (MIC).
Source text: as §1, §2

Assay [1] concerns Enterobacter cloacae P99-. Described as above. In kind it is cell-based. The note with it: P99, read-out: minimum inhibitory concentration (MIC).
Source text: as §1, §2

The subject of assay [2] is Gram positive and negative, aerobic and anaerobic bacteria. The note with it: imipenem, background; cited from earlier work.

The structures appear in SMILES notation. Values after ≈ are worked out from the molar mass of the structure shown.

`C[C@@H](O)[C@H]1C(=O)N2C(C(=O)O)=C(S[C@@H]3CN[C@H](C(=O)Nc4cccc(S(=O)(=O)O)c4)C3)[C@H](C)[C@H]12` [EXAMPLE 1, (1R,5S,6S,8R,2'S,4'S)-2-(2-(3-Sulfophenylcarbamoyl)pyrrolidin-4-ylthio)-6-(1-hydroxyethyl)-1-methylcarbapenem-3-carboxylic acid]: the MIC in the assay with B. fragilis AMP S was 0.25 µg/mL (≈ 0.489 µM); in the assay on S. aureus Oxford it was 0.125 µg/mL (≈ 0.244 µM); in the assay with P. morganii I + 001, 0.015 µg/mL (≈ 0.0293 µM); in the assay with E. coli DCO, 0.015 µg/mL (≈ 0.0293 µM); in assay [1], 0.008 µg/mL (≈ 0.0156 µM).
Regarding `C[C@@H](O)[C@H]1C(=O)N2C(C(=O)O)=C(SCCN=CN)C[C@H]12` [imipenem, N-formimidoyl thienamycin], the “spectrum of antibacterial activity” value in assay [2] is recorded as “broad spectrum of antibacterial activity”.
